What all share (assay): NCI-60 cell line screen, 48 h
The subject of test [1] is BT-549 breast.
The test system of test [2] is SK-MEL-2 melanoma.
In test [3] the test system is TK-10 renal.
The subject of test [4] is SR leukemia.
Test [5] has as its system OVCAR-4 ovarian.
Test [6] concerns SK-OV-3 ovarian.
In test [7] the test system is SW-620 colon.
Test [8] deals with HCT-116 colon.
Test [9] concerns HCT-15 colon.
The test system of test [10] is NCI-H522 lung.

Values joined by “and” are separate entries in the source; they are usually repeats but may differ in a detail not shown here. Identical values can stand only once.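 Method: 48-hour compound exposure of cells in 96-well plates, five concentrations, linear interpolation of endpoints. GI50 marks 50% less growth. TGI is the concentration that stops growth completely.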 Bounds are passed on as bounds.

On to `CC(=O)Nc1sc2c(c1-c1nc3ccccc3s1)CNC2`, for which the GI50 in test [1] is 6.83 µM; in [2] it was 2.67 µM; in test [3], 4.74 µM; in test [4], 1.68 µM; in test [5], 3.08 µM; in [6] it was 4.05 µM. The GI50 in [7] is 2.33 µM; in test [8], 1.99 µM; in test [9] it was 1.56 µM; in test [10], 2.62 µM. Also, the TGI in test [1] was found to be 14.7 µM; in [2] it was 9.71 µM; in test [3], 24.4 µM; in test [4], 12.6 µM; in [5], 24.8 µM; in test [6], 39.2 µM. Moreover, the TGI worked out at 48.3 µM in test [7], 12.5 µM in test [8], 8.89 µM in test [9] and 10.8 µM in test [10].
Take `COc1cc(C2C(C#N)=C(N)Oc3cc(O)ccc32)cc(OC)c1OC` (stereo not drawn): the GI50 in test [1] is 0.419 µM; in test [2], 0.496 µM; in [3] it was 8.61 µM; in test [4], 0.335 µM; in test [5], 2.14 µM; in test [6] it was 0.481 µM. Further, the GI50 is 0.361 µM in test [7], 0.428 µM in test [8], 0.539 µM in [9] and 0.281 µM in test [10]. Further, the TGI in test [1] is 33.3 µM; in test [2] it was > 100 µM; in test [3], > 100 µM; in [4] it was > 100 µM; in test [5] it was > 100 µM; in [6], > 43.9 µM. In addition, the TGI in test [7] was > 100 µM; in [8] it was > 100 µM; in test [9] it was > 100 µM; in test [10], 3.85 µM.
In the case of `C=C1N(C)c2ccc(Cl)cc2C1(C)C`, the GI50 in test [1] is 3.35 µM; in [2], 13.5 µM; in [3], 14.7 µM; in test [4] it was 2.74 µM; in test [5], 4.83 µM; in test [6] it was 18.1 µM. Further, the GI50 is 5.8 µM in test [7], 3.52 µM in [8], 29.1 µM in [9] and 5.91 µM in test [10]. Moreover, the TGI in test [1] is 22.3 µM; in [2], 42.8 µM; in test [3], 69.2 µM; in test [4], 8.94 µM; in [5] it was > 100 µM; in [6], 65.4 µM. In addition, the TGI was > 100 µM in [7], 17.5 µM in test [8], > 100 µM in test [9] and 74.8 µM in test [10].
For the compound `COc1cc(OC)cc(-c2cncn2-c2ccc(-c3nc4cc(OC)c(OC)c(OC)c4s3)cc2)c1`, the GI50 was 6.71 µM in test [1]; 6.16 µM in test [2]; 26.4 µM in test [3]; 7.14 µM in test [4]; 6.67 µM in test [5]; 49.9 µM in [6]. Further, the GI50 in test [7] is 13.7 µM; in test [8], 3.76 µM; in test [9], 5.72 µM; in test [10], 11.8 µM. Moreover, the TGI in test [1], in [2], in test [3], in [4], in test [5] and in test [6] was > 100 µM throughout. The TGI in [7], in [8], in [9] and in test [10] was > 100 µM in each case.
Regarding `Nc1c(C(=O)Nc2ccccc2)sc2nc3c(cc12)CCCC3`, the GI50 in test [1] was 3.89 µM; in test [2], 3.24 µM; in test [3] it was 16.8 µM; in [4], 0.36 µM; in [5] it was 5.18 µM; in test [6] it was 0.832 µM. The GI50 in test [7] is 0.403 µM; in test [8], 0.49 µM; in [9], 0.436 µM; in test [10] it was 0.872 µM. Moreover, the TGI in test [1] was > 100 µM; in test [2], > 67.3 µM; in test [3] it was > 100 µM; in test [4] it was 19.6 µM; in test [5] it was > 100 µM; in test [6] it was 37.5 µM. Besides, the TGI in test [7] was > 100 µM; in test [8], > 100 µM; in [9], > 100 µM; in test [10], > 25.8 µM.
For `CNC1C(OC2C(OC3C(O)C(O)C(O)C(O)C3O)OC(C)C2(O)CO)OC(CO)C(O)C1O` (stereo not drawn) (tested in a mixture with another compound), the TGI in test [1], in test [2], in test [3], in test [4], in test [5] and in test [6] was > 100 µM in each case. Further, the TGI in [7], in [8], in [9] and in [10] was > 100 µM in each case.
In the case of `Cc1ccc(S(=O)(=O)n2cc(-c3nnnn3-c3ccc(Cl)cc3)c(=O)c3ccccc32)cc1`, the GI50 was > 100 µM in test [1]; > 100 µM in test [2]; > 100 µM in [3]; 40.9 µM in test [4]; 53.7 µM in [5]; > 100 µM in test [6]. The GI50 in test [7] is > 100 µM; in test [8], 45.9 µM; in test [9], > 100 µM; in test [10], 41.3 µM. Further, the TGI in test [1], in test [2], in test [3], in test [4], in test [5] and in test [6] was > 100 µM throughout. For the same compound, the TGI in [7], in test [8], in test [9] and in [10] was > 100 µM each time.
As for `Oc1cc2ccccc2cc1-c1n[nH]c(=S)n1-c1ccc(Cl)cc1`, the GI50 in [1] is 16.2 µM; in test [2], 12.5 µM; in test [3] it was 18.9 µM; in [4] it was 3.08 µM; in test [5], 40.5 µM; in [6] it was 28.6 µM. Moreover, the GI50 was 23 µM in [7], 19.3 µM in test [8], 7.96 µM in [9] and 5.65 µM in test [10]. The TGI in test [1] is > 100 µM; in test [2], 39.3 µM; in [3], 63 µM; in test [4], > 100 µM; in test [5], > 100 µM; in test [6], > 100 µM. Also, the TGI in test [7] was > 100 µM; in test [8], > 100 µM; in [9], > 100 µM; in test [10] it was 35.2 µM.
With `O=C(/C=C/c1cccnc1)c1ccccc1O`, the GI50 in test [1] is 14.2 µM; in test [2], 22.8 µM; in test [3], 27.6 µM; in test [4], 12.3 µM; in test [5], 29.5 µM; in test [6], 33.7 µM. In addition, the GI50 in test [7] is 22.5 µM; in test [8] it was 16.8 µM; in test [9] it was 15.6 µM; in test [10], 16.6 µM. In addition, the TGI is 28.5 µM in test [1]; 62.2 µM in [2]; > 100 µM in [3]; 64.6 µM in test [4]; > 100 µM in [5]; > 100 µM in [6]. Moreover, the TGI in test [7] was found to be 63.2 µM; in test [8], 34.9 µM; in [9] it was 41 µM; in test [10], 48.7 µM.
With `CCc1ccc(Nc2cc(C)nc3nc(C)nn23)cc1`, the GI50 is > 100 µM in test [1]; > 100 µM in test [2]; 61.7 µM in test [3]; 53.1 µM in [4]; 27.7 µM in [5]; > 100 µM in test [6]. In addition, the GI50 in test [7] was > 100 µM; in test [8], 80.1 µM; in test [9] it was 32.8 µM; in [10], 42.3 µM. Besides, the TGI in [1], in test [2], in test [3], in [4], in test [5] and in [6] was > 100 µM in each case. Besides, the TGI in test [7], in test [8], in [9] and in test [10] was > 100 µM throughout.
Take `C[C@]12CC[C@H]3[C@@H](C[C@@H]4N=C(c5ccc(O)cc5)S[C@@]45C[C@H](O)CC[C@]35C)[C@@H]1CC[C@@H]2O`: the GI50 in [1] was 1.14 µM; in [2] it was 4.42 µM; in [3] it was > 100 µM; in test [4], 1.37 µM; in test [5] it was 7.24 µM; in [6], 19 µM. Further, the GI50 in test [7] was 8.4 µM; in [8] it was 2.37 µM; in test [9] it was 2.43 µM; in test [10] it was 22.6 µM. For the same compound, the TGI in test [1] was 19.4 µM; in test [2] it was 69.4 µM; in [3], > 100 µM; in test [4], 33.8 µM; in test [5] it was > 100 µM; in test [6] it was > 100 µM. Moreover, the TGI is > 100 µM in [7], 27.4 µM in test [8], 20.7 µM in [9] and > 100 µM in test [10].
As to `NC[C@@](O)(c1ccc(Cl)cc1)c1ccc(-c2cn[nH]c2)cc1`, the GI50 in test [1] was 0.892 µM and 1.13 µM; in test [2], 1.89 µM; in test [3] it was 0.083 µM and 0.268 µM; in test [4] it was 1.16 µM; in test [5] it was 1.4 µM; in [6], 2.23 µM. Further, the GI50 in [7] was 2.13 µM and 1.56 µM; in test [8] it was 1.44 µM; in test [9] it was 0.867 µM; in test [10] it was 1.45 µM. In addition, the TGI in [1] is 3.91 µM and 7.63 µM; in [2], 4.5 µM; in test [3], 0.875 µM and 1.54 µM; in test [4], 4.64 µM; in test [5] it was 2.86 µM; in [6] it was > 10 µM. Further, the TGI in test [8] is 3.19 µM; in [9], 2.7 µM; in [10], 3.53 µM.
Regarding `COc1ccc(/C=C/C(=O)c2ccc(Nc3ccnc4cc(Cl)ccc34)cc2)cc1`, the GI50 was > 100 µM in [1]; > 100 µM in test [2]; > 100 µM in test [3]; 2.24 µM in [4]; > 100 µM in test [5]; > 100 µM in test [6]. The GI50 is > 100 µM in test [7], 0.412 µM in [8], > 100 µM in [9] and > 100 µM in [10]. Also, the TGI in [1] is > 100 µM; in test [2], > 100 µM; in test [3], > 100 µM; in [4], 10.1 µM; in test [5], > 100 µM; in test [6], > 100 µM. The TGI in test [7], in test [8], in test [9] and in [10] was > 100 µM throughout.
As to `O=c1cccc(C#CC#C/C=C/CO)o1`, the GI50 is 2.1 µM in test [1]; 7.52 µM in test [2]; 2.21 µM in test [3]; > 100 µM in [4]; 3.1 µM in test [5]; 10.8 µM in test [6]. Moreover, the GI50 in test [7] was 3.3 µM; in [8], 5.71 µM; in [9], 1.98 µM; in test [10], 1.45 µM. Also, the TGI is 5.17 µM in [1]; > 31.3 µM in test [2]; 4.66 µM in test [3]; > 100 µM in [4]; > 100 µM in test [5]; 22.8 µM in test [6]. Moreover, the values for the TGI in [7], in test [8] and in [9] were > 24.9 µM, > 100 µM and 5.15 µM, respectively.
On to `O=C1C(Cl)=C(Nc2cccc(O)c2)C(=O)N1c1cccc(Cl)c1Cl`, for which the GI50 was 24.5 µM in [1]; 15.2 µM in [2]; 20.2 µM in [3]; 0.57 µM in test [4]; 15.6 µM in [5]; 32.9 µM in test [6]. For the same compound, the GI50 is 15.2 µM in test [7], 11.2 µM in test [8], 20.7 µM in test [9] and 12.4 µM in test [10]. The TGI is 61.2 µM in test [1]; 35.9 µM in test [2]; 80 µM in [3]; 10.3 µM in test [4]; 40.5 µM in test [5]; > 100 µM in test [6]. The TGI was 34.5 µM in [7], 23.2 µM in [8], 56.7 µM in [9] and 27 µM in [10].

The record behind these values is PubChem BioAssay (NCI).
